Measured values reported in patent US20240108702A1, “Use Of Naturally Occurring Cyclic Peptides For Treatment Of SARS-COV-2 Infection” (The University of Southern California, priority 2021, published 2024).
Like-named read-outs stand apart in the source and are kept apart here. Where a SMILES comes first, the peptide text is derived from it. Bridges are numbered along the chain shown (N, C = ends).

Conditions: for LOAEL: i.v.
[1] = female rats, 5 mg/kg/day, Day 8, median
[2] = female rats, 10 mg/kg/day, Day 8, median
[3] = female rats, 20 mg/kg, Day 2, median
[4] = male rats, 5 mg/kg/day, Day 8, median
[5] = male rats, 10 mg/kg/day, Day 8, median
[6] = male rats, 20 mg/kg, Day 2, median

## CC[C@H](C)[C@@H]1NC(=O)[C@@H]2CSSC[C@H](NC(=O)[C@H](CCCNC(=N)N)NC(=O)[C@@H]3CSSC[C@H](NC1=O)C(=O)N[C@@H]([C@@H](C)O)C(=O)N[C@@H](CCCNC(=N)N)C(=O)NCC(=O)N[C@@H](Cc1ccccc1)C(=O)N3)C(=O)N[C@@H](CC(C)C)C(=O)N[C@H]1CSSC[C@H](NC(=O)[C@H](C(C)C)NC(=O)CNC(=O)[C@H](CCCNC(=N)N)NC(=O)[C@H](CCCNC(=N)N)NC1=O)C(=O)N[C@@H](CCCNC(=N)N)C(=O)N2 [Peptide 1] (cyclo(GFCRCLCRRGVCRCICTR); disulfide 3-16, 5-14, 7-12)
Sprague-Dawley rats, study duration 7 days (Table 8)
  LOAEL: 20 mg/kg/day
Female rats, 5 mg/kg dose group, found dead Day 15
  mortality (determined unrelated to treatment): 1 out of 16
[1]
  A/G: 2.10
  ALP: 92.0 U/L
  ALT: 35.0 U/L
  APTT: 10.6 s
  AST: 139.0 U/L
  Albumin: 3.9 g/dL
  Basophils: 0.3%
  Basophils absolute: 0.02 10^3/mm^3
  CK: 792 U/L
  Calcium: 9.80 mg/dL
  Chloride: 105.0 mmol/L
  Cholesterol: 55.0 mg/dL
  Creatinine: 0.3 mg/dL
  Eosinophils: 3.6%
  Eosinophils absolute: 0.30 10^3/mm^3
  Fibrinogen: 223 mg/dL
  GGT: 0.0 U/L
  Globulin: 1.8 g/dL
  Glucose: 97 mg/dL
  HDW: 2.37 g/dL
  Hct: 40.5%
  Hemoglobin: 13.5 g/dL
  K: 4.9 mmol/L
  LUC: 0.3%
  LUC absolute: 0.02 10^3/mm^3
  Lymphocyte absolute: 4.78 10^3/mm^3
  Lymphocytes: 68.1%
  MCH: 19.1 pg
  MCHC: 33.4 g/dL
  MCV: 57.9 fL
  Monocyte absolute: 0.17 10^3/mm^3
  Monocytes: 2.6%
  Na: 143 mmol/L
  Neutrophil absolute: 1.33 10^3/mm^3
  Neutrophils: 26.7%
  PT: 16.3 s
  Phos: 7.3 mg/dL
  Platelets: 801 10^3/mm^3
  RBC: 6.88 10^6/mm^3
  RDW: 12.7%
  Reticulocytes: 3.9%
  Reticulocytes absolute: 256.7 10^3/mm^3
  T-Bil: 0.00 mg/dL
  TP: 5.8 g/dL
  Triglycerides: 25 mg/dL
  Urea N: 20 mg/dL
  WBC: 6.50 10^3/mm^3
[2]
  A/G: 2.15
  ALP: 109.5 U/L
  ALT: 32.5 U/L
  APTT: 10.9 s
  AST: 122.0 U/L
  Albumin: 3.9 g/dL
  Basophils: 0.4%
  Basophils absolute: 0.04 10^3/mm^3
  CK: 474 U/L
  Calcium: 9.95 mg/dL
  Chloride: 105.0 mmol/L
  Cholesterol: 55.0 mg/dL
  Creatinine: 0.3 mg/dL
  Eosinophils: 3.3%
  Eosinophils absolute: 0.33 10^3/mm^3
  Fibrinogen: 283 mg/dL
  GGT: 0.0 U/L
  Globulin: 1.8 g/dL
  Glucose: 99 mg/dL
  HDW: 2.45 g/dL
  Hct: 41.2%
  Hemoglobin: 13.7 g/dL
  K: 5.05 mmol/L
  LUC: 0.35%
  LUC absolute: 0.04 10^3/mm^3
  Lymphocyte absolute: 7.13 10^3/mm^3
  Lymphocytes: 72.0%
  MCH: 19.0 pg
  MCHC: 33.3 g/dL
  MCV: 57.3 fL
  Monocyte absolute: 0.39 10^3/mm^3
  Monocytes: 3.5%
  Na: 142.5 mmol/L
  Neutrophil absolute: 2.18 10^3/mm^3
  Neutrophils: 19.9%
  PT: 17.1 s
  Phos: 7.05 mg/dL
  Platelets: 939 10^3/mm^3
  RBC: 7.21 10^6/mm^3
  RDW: 13.0%
  Reticulocytes: 4.1%
  Reticulocytes absolute: 277.3 10^3/mm^3
  T-Bil: 0.00 mg/dL
  TP: 5.7 g/dL
  Triglycerides: 26 mg/dL
  Urea N: 21 mg/dL
  WBC: 10.75 10^3/mm^3
[3]
  A/G: 3.00
  ALP: 142.0 U/L
  ALT: 62.0 U/L
  APTT: 29.2 s
  AST: 397.0 U/L
  Albumin: 3.0 g/dL
  Basophils: 0.5%
  Basophils absolute: 0.06 10^3/mm^3
  CK: 1,506 U/L
  Calcium: 10.30 mg/dL
  Chloride: 104.0 mmol/L
  Cholesterol: 52.0 mg/dL
  Creatinine: 0.5 mg/dL
  Eosinophils: 1.5%
  Eosinophils absolute: 0.13 10^3/mm^3
  Fibrinogen: 83 mg/dL
  GGT: 4.0 U/L
  Globulin: 1.0 g/dL
  Glucose: 218 mg/dL
  HDW: 2.37 g/dL
  Hct: 46.9%
  Hemoglobin: 15.2 g/dL
  K: 4.9 mmol/L
  LUC: 0.5%
  LUC absolute: 0.05 10^3/mm^3
  Lymphocyte absolute: 5.56 10^3/mm^3
  Lymphocytes: 60.5%
  MCH: 19.6 pg
  MCHC: 32.3 g/dL
  MCV: 61.0 fL
  Monocyte absolute: 0.33 10^3/mm^3
  Monocytes: 3.8%
  Na: 141 mmol/L
  Neutrophil absolute: 2.55 10^3/mm^3
  Neutrophils: 33.6%
  PT: 23.5 s
  Phos: 9.3 mg/dL
  Platelets: 604 10^3/mm^3
  RBC: 7.63 10^6/mm^3
  RDW: 12.2%
  Reticulocytes: 5.3%
  Reticulocytes absolute: 326.0 10^3/mm^3
  T-Bil: 0.00 mg/dL
  TP: 3.90 g/dL
  Triglycerides: 106 mg/dL
  Urea N: 20 mg/dL
  WBC: 8.15 10^3/mm^3
Female rats, 5 and 10 mg/kg/day, end of treatment, non-adverse, recoverable
  microscopic findings, liver: minimal to mild liver necrosis
Male and female rats, 20 mg/kg
  microscopic findings, adrenal: Mild to severe adrenal necrosis
Male and female rats, 20 mg/kg dosing group
  body weight: significant decreases in body weights
[4]
  A/G: 2.2
  ALP: 212.0 U/L
  ALT: 40.0 U/L
  APTT: 14.8 s
  AST: 133.0 U/L
  Albumin: 3.8 g/dL
  Basophils: 0.3%
  Basophils absolute: 0.03 10^3/mm^3
  CK: 766 U/L
  Calcium: 9.75 mg/dL
  Chloride: 104.5 mmol/L
  Cholesterol: 70.5 mg/dL
  Creatinine: 0.2 mg/dL
  Eosinophils: 3.9%
  Eosinophils absolute: 0.37 10^3/mm^3
  Fibrinogen: 263 mg/dL
  GGT: 0.0 U/L
  Globulin: 1.7 g/dL
  Glucose: 73 mg/dL
  HDW: 2.30 g/dL
  Hct: 43.8%
  Hemoglobin: 14.1 g/dL
  K: 5.15 mmol/L
  LUC: 0.3%
  LUC absolute: 0.03 10^3/mm^3
  Lymphocyte absolute: 6.03 10^3/mm^3
  Lymphocytes: 71.8%
  MCH: 20.0 pg
  MCHC: 32.1 g/dL
  MCV: 61.8 fL
  Monocyte absolute: 0.22 10^3/mm^3
  Monocytes: 2.9%
  Na: 144 mmol/L
  Neutrophil absolute: 2.04 10^3/mm^3
  Neutrophils: 20.2%
  PT: 16.0 s
  Phos: 8.45 mg/dL
  Platelets: 1,052 10^3/mm^3
  RBC: 7.06 10^6/mm^3
  RDW: 14.0%
  Reticulocytes: 5.2%
  Reticulocytes absolute: 359.7 10^3/mm^3
  T-Bil: 0.00 mg/dL
  TP: 5.5 g/dL
  Triglycerides: 37 mg/dL
  Urea N: 16.5 mg/dL
  WBC: 8.40 10^3/mm^3
[5]
  A/G: 2.35
  ALP: 212.5 U/L
  ALT: 32.5 U/L
  APTT: 14.6 s
  AST: 113.5 U/L
  Albumin: 3.7 g/dL
  Basophils: 0.3%
  Basophils absolute: 0.03 10^3/mm^3
  CK: 613 U/L
  Calcium: 9.70 mg/dL
  Chloride: 105.0 mmol/L
  Cholesterol: 66.0 mg/dL
  Creatinine: 0.3 mg/dL
  Eosinophils: 3.0%
  Eosinophils absolute: 0.31 10^3/mm^3
  Fibrinogen: 261 mg/dL
  GGT: 0.0 U/L
  Globulin: 1.6 g/dL
  Glucose: 83 mg/dL
  HDW: 2.20 g/dL
  Hct: 43.7%
  Hemoglobin: 14.2 g/dL
  K: 5.1 mmol/L
  LUC: 0.3%
  LUC absolute: 0.03 10^3/mm^3
  Lymphocyte absolute: 6.69 10^3/mm^3
  Lymphocytes: 70.9%
  MCH: 20.2 pg
  MCHC: 32.4 g/dL
  MCV: 62.6 fL
  Monocyte absolute: 0.28 10^3/mm^3
  Monocytes: 2.7%
  Na: 144 mmol/L
  Neutrophil absolute: 1.85 10^3/mm^3
  Neutrophils: 22.6%
  PT: 17.5 s
  Phos: 8.6 mg/dL
  Platelets: 1,086 10^3/mm^3
  RBC: 7.06 10^6/mm^3
  RDW: 13.1%
  Reticulocytes: 4.6%
  Reticulocytes absolute: 314.2 10^3/mm^3
  T-Bil: 0.00 mg/dL
  TP: 5.35 g/dL
  Triglycerides: 29 mg/dL
  Urea N: 19.0 mg/dL
  WBC: 10.05 10^3/mm^3
[6]
  A/G: 2.70
  ALP: 232.0 U/L
  ALT: 74.0 U/L
  APTT: 18.5 s
  AST: 245.0 U/L
  Albumin: 2.7 g/dL
  Basophils: 0.2%
  Basophils absolute: 0.03 10^3/mm^3
  CK: 707 U/L
  Calcium: 9.40 mg/dL
  Chloride: 101.0 mmol/L
  Cholesterol: 67.0 mg/dL
  Creatinine: 0.4 mg/dL
  Eosinophils: 1.1%
  Eosinophils absolute: 0.15 10^3/mm^3
  Fibrinogen: 98 mg/dL
  GGT: 0.0 U/L
  Globulin: 1.0 g/dL
  Glucose: 175 mg/dL
  HDW: 2.44 g/dL
  Hct: 37.3%
  Hemoglobin: 12.1 g/dL
  K: 5.1 mmol/L
  LUC: 0.5%
  LUC absolute: 0.07 10^3/mm^3
  Lymphocyte absolute: 4.24 10^3/mm^3
  Lymphocytes: 30.9%
  MCH: 20.0 pg
  MCHC: 31.8 g/dL
  MCV: 62.5 fL
  Monocyte absolute: 0.93 10^3/mm^3
  Monocytes: 8.1%
  Na: 140 mmol/L
  Neutrophil absolute: 8.40 10^3/mm^3
  Neutrophils: 61.1%
  PT: 21.3 s
  Phos: 9.3 mg/dL
  Platelets: 728 10^3/mm^3
  RBC: 6.04 10^6/mm^3
  RDW: 14.3%
  Reticulocytes: 6.4%
  Reticulocytes absolute: 373.3 10^3/mm^3
  T-Bil: 0.10 mg/dL
  TP: 3.7 g/dL
  Triglycerides: 193 mg/dL
  Urea N: 28 mg/dL
  WBC: 13.70 10^3/mm^3
Male rats, 20 mg/kg, adverse
  microscopic findings, liver: minimal to moderate liver necrosis
rats
  LOAEL: 20 mg/kg
rats, once daily i.v. infusion 5 and 10 mg/kg/day, temporary, resolved in recovery
  clinical signs: non-adverse, treatment-related clinical signs
rats, single i.v. 20 mg/kg, Day 1
  acute, treatment-related mortality: 5 out of 12
